Laboratory results: US6180803A, “19-nor-pregnene derivatives and pharmaceuticals containing such derivatives” (priority 1996, dated 2001)

Tests used:
[1] = test system: uterus of estrogen-primed immature female rabbits (endometrial transformation); conditions: in words, known from the literature; cited from earlier work
[2] = test system: ventral prostate and seminal vesicle of immature castrated male rats; assay: Residual androgenic activity in the immature castrated male rat model; type: in vivo; conditions: for Seminal Vesicle weight / Ventral Prostate weight: 10 daily administrations; for effect on the growth of male accessory sex organs (residual androgenic activity): in words, gavage (PO), Tables 3 and 4
Text: The residual androgenic potential is an important feature to be evaluated for any new progestin, because it is highly predictive of androgenic side-effects in women. One pharmacological model of androgenic activity has been standardized to screen steroids or related compounds in immature castrated male rats, using the hypertrophy of the vental prostate and of the seminal vesicle as the endpoint, following 10 daily administrations (R. I. Dorfman, in Methods in Hormone Research, volume 2, London, Academic Press, 1962: 275-313; A. G. Hilgar and D. J. Hummel, Androgenic and Myogenic Endocrine Bioassay Data, U.S. Department of Health, Education and Welfare, Washington D.C., 1964).

[3] = test system: human T47-D cell progesterone receptor; assay: Relative binding affinity to human T47-D cell progesterone receptor ([3H]-ORG 2058 displacement); conditions: for IC50: mean ± s.e.m., 2 nM [3H]-ORG 2058, 3 hours at 4° C., T47-D cell PR, read-out: ED50 (concentration inhibiting 50% of the specific binding of [3H]-ORG 2058); for RBA (relative binding affinity): relative to nomegestrol acetate = 100%
Protocol: (§1) The progestational activity of the compounds according to the present invention can be assessed mainly in two specific experimental models the affinity for the progesterone receptor (PR) in vitro, and the endometrial tranformation of the rabbit uterus in vivo. Human PRs are readily available in high amounts from the T47-D cell line in culture (M. B. Mockus et al., Endocrinology, 1982, 110, 1564-1571). Relative binding affinities (RBA) for the human T47-D cell PR are determined as previously described (J. Botella et al., J. Steroid Biochem. Molec. Biol., 1994, 50, 41-47) using [^3 H]-ORG 2058 as a labelled specific ligand (G. Fleischmann and M. Beato, Biochim. Biophys. Acta, 1978, 540, 500-517) and nomegestrol acetate as a non-radioactive reference progestin. Competitive incubations were performed against 2 nM of [^3 H]-ORG 2058 for 3 hours at 4° C. with […] of non-labelled steroid, chosen between 4 and 256 nM following a 1/2^n dilution scheme. Displacement curves were fitted for each experiment, and the concentration inhibiting 50% of the specific binding of [^3 H]-ORG 2058 was calculated for each curve (IC50).

[4] = test system: uterus of estrogen-primed immature female rabbits (endometrial transformation); assay: Clauberg-McPhail test by oral administration (gavage), endometrial transformation of the rabbit uterus; type: in vivo; conditions: for ED50 (dose for mean McPhail grade equal to 2): mean ± s.e.m., total dose/rabbit/5 days; for Relative activity: relative to nomegestrol acetate = 100%
Protocol: as §1
One specific pharmacological test has been standardized in vivo for the detection and quantitation of pseudogestagenic activity since the mid-30's: it is based on the property of the uterus of estrogen-primed immature female rabbits to respond to very slight amounts of progestin by a typical endometrial transformation into a densely packed and interlaced epithelial network called "dentelle". The original test schedule, which includes 6 days of estrogen priming (total subcutaneous dose of 30 μg/rabbit of oestradiol benzoate) followed by 5 days of progestational treatment, was designed as early as 1930 by C. Clauberg, Zentr. Gynakol. 1930, 54, 2757-2770. The semi-quantitative scale used to grade the intensity of the microscopical appearance of the dentelle was set up by M. K. McPhail, J. Physiol (London), 1934, 83, 145-156. This overall Clauberg-McPhail procedure has been extensively used to screen steroids for putative progestational activity in vivo and is still part of the basic hormonal profile of any new progestin such as norgestimate (A Phillips et al., Contraception, 1987, 36, 181-192), or desogestrel (J. Van der Vies and J. De Visser, Arzneim. Forsch/Drug Res., 1983, 33, 231-236). The progestational potency is inversely related to the dose needed to induce a half-maximal stimulation of the dentelle, i.e. to record a mean McPhail grade equal to 2. This ED50 is deduced from the dose-responsecurve and expressed in total dose/rabbit/5 days. All compounds were tested only following oral administration by gavage, in suspension in a carboxy-methylcellulose solution.

[5] = test system: ventral prostate and seminal vesicle of immature castrated male rats; conditions: well-known from the literature (Tausk and de Visser); cited from earlier work
[6] = Table 4, PO, 20 mg/animal/day, mean ± s.e.m. of 7 or 8 animals, castrated controls 10.4 ± 0.6, both ns
[7] = Table 4, PO, 20 mg/animal/day, mean ± s.e.m. of 7 or 8 animals, castrated controls 11.8 ± 0.6, cyproterone acetate p <0.05, Example 4 ns
[8] = Table 3, PO, 20 mg/animal/day, mean ± s.e.m. of 8 animals, castrated controls 12.0 ± 0.9, medroxyprogesterone acetate p <0.001, Example 1 ns
[9] = Table 3, PO, 20 mg/animal/day, mean ± s.e.m. of 8 animals, castrated controls 12.3 ± 0.7, medroxyprogesterone acetate p <0.01, Example 1 ns

| SMILES | effect on the growth of male accessory sex organs (residual androgenic activity) [2] | IC50 [3] [nM] | RBA (relative binding affinity) [3] [%] | ED50 (dose for mean McPhail grade equal to 2) [4] [μg/rabbit 5 days] | Relative activity [4] [%] | further results |
| --- | --- | --- | --- | --- | --- | --- |
| CC(=O)O[C@]1(C(C)=O)CC[C@H]2[C@@H]3C=C(Cl)C4=CC(=O)[C@@H]5C[C@@H]5[C@]4(C)[C@H]3CC[C@@]21C [Cyproterone acetate] | very weak and limited to the ventral prostate, at the border of statistical significance |  |  |  |  | progestational activity [1]: potent progestational activity; Seminal Vesicle weight [2, 6]: 11.3 ± 0.6 mg; Ventral Prostate weight [2, 7]: 15.3 ± 1.3 mg |
| CC(=O)O[C@]1(C(C)=O)CC[C@H]2[C@@H]3CC(C)(C)C4=CC(=O)CC[C@@H]4[C@H]3CC[C@@]21C [Example 1, 17α-acetoxy-6,6-dimethyl-3,20-dioxo-19-nor-pregna-4-ene] | totally inactive | 27.8 ± 2 | 32 | 152 ± 28 | 112 | Ventral Prostate weight [2, 8]: 13.0 ± 0.3 mg; Seminal Vesicle weight [2, 9]: 10.4 ± 0.5 mg |
| CC(=O)O[C@]1(C(C)=O)CC[C@H]2[C@@H]3C[C@H](C)C4=CC(=O)[C@@H]5C[C@@H]5[C@@H]4[C@H]3CC[C@@]21C [Example 4, 17α-acetoxy-1α,2α-methylene-6α-methyl-3,20-dioxo-19-nor-pregna-4-ene] | totally inactive | 22.8 ± 1.7 | 39 | 66 ± 11 | 258 | Seminal Vesicle weight [2, 6]: 11.2 ± 0.5 mg; Ventral Prostate weight [2, 7]: 12.1 ± 0.4 mg |
| CC(=O)O[C@]1(C(C)=O)CC[C@H]2[C@@H]3C[C@H](C)C4=CC(=O)[C@H]5C[C@H]5[C@@H]4[C@H]3CC[C@@]21C [Example 5, 17α-acetoxy-1β,2β-methylene-6α-methyl-3,20-dioxo-19-nor-pregna-4-ene] |  | 17.7 ± 2.4 | 50 | > 750 ± 6.0 | > 17 |  |
| CC(=O)O[C@]1(C(C)=O)CC[C@H]2[C@@H]3C[C@H](C)C4=CC(=O)CC[C@]4(C)[C@H]3CC[C@@]21C [Medroxyprogesterone acetate] | caused both organs to more or less double in weight |  |  |  |  | androgenic properties [5]: weak androgenic properties; Ventral Prostate weight [2, 8]: 29.1 ± 1.4 mg; Seminal Vesicle weight [2, 9]: 19.9 ± 1.8 mg |
| CC(=O)O[C@]1(C(C)=O)CC[C@H]2[C@@H]3C=C(C)C4=CC(=O)CC[C@@H]4[C@H]3CC[C@@]21C [Nomegestrol acetate, reference compound] |  | 8.9 ± 2 | 100 | 170 ± 41 | 100 | progestational activity [1]: potent orally active |
| C[C@]12CC[C@H]3[C@@H](CCC4=CC(=O)CC[C@@]43C)[C@@H]1CC[C@@H]2O [Testosterone] |  |  |  |  |  | Ventral Prostate weight ([2]; Table 3, SC, 0.05 mg/animal/day, mean ± s.e.m. of 8 animals, castrated controls 12.0 ± 0.9, *** p <0.001): 90.4 ± 4.4 mg; Seminal Vesicle weight ([2]; Table 3, SC, 0.05 mg/animal/day, mean ± s.e.m. of 8 animals, castrated controls 12.3 ± 0.7, *** p <0.001): 90.3 ± 6.7 mg; Seminal Vesicle weight ([2]; Table 4, SC, 0.05 mg/animal/day, mean ± s.e.m. of 7 or 8 animals, castrated controls 10.4 ± 0.6, *** p <0.001): 79.0 ± 5.3 mg; Ventral Prostate weight ([2]; Table 4, SC, 0.05 mg/animal/day, mean ± s.e.m. of 7 or 8 animals, castrated controls 11.8 ± 0.6, *** p <0.001): 80.9 ± 3.4 mg |
